“Also recorded” adds a separate entry of the source.
Experiments:
[1] = tested on: patient RTV-136, RTV-240, RTV-955 and RTV-960 (A62V, V75I, F77L, F116Y, Q151M); test: Phenotypic susceptibility assay, patient isolates with multi-NRTI resistance mutations; type: cell-based, HIV-1; settings: for susceptibility compared to wild-type control RTV: patient RTV pools with MDR mutations
Protocol: In these experiments patient-derived segment(s) corresponding to the HIV protease and reverse transcriptase coding regions were either patient-derived segments amplified by the reverse transcription-polymerase chain reaction method (RT-PCR) using viral RNA isolated from viral particles present in the serum of HIV-infected individuals or were mutants of wild type HIV-1 made by site directed mutagenesis of a parental clone of resistance test vector DNA. Isolation of viral RNA was performed using standard procedures (e.g. RNAgents Total RNA Isolation System, Promega, Madison Wis. or RNAzol, Tel-Test, Friendswood, Tex.). The RT-PCR protocol was divided into two steps. A retroviral reverse transcriptase [e.g. Moloney MuLV reverse transcriptase (Roche Molecular Systems, Inc., Branchburg, N.J.), or avian myeloblastosis virus (AMV) reverse transcriptase, (Boehringer Mannheim, Indianapolis, Ind.)] was used to copy viral RNA into cDNA. The cDNA was then amplified using a thermostable DNA polymerase [e.g. Taq (Roche Molecular Systems, Inc., Branchburg, N.J.), Tth (Roche Molecular Systems, Inc., Branchburg, N.J.), PrimeZyme (isolated from Thermus brockianus, Biometra, Gottingen, Germany)] or a combination of thermostable polymerases as described for the performance of “long PCR” (Barnes, W. M., (1994) Proc. Natl. Acad. Sci, USA 91, 2216-2220) [e.g. Expand High Fidelity PCR System (Taq+Pwo), (Boehringer Mannheim. Indianapolis, Ind.) OR GeneAmp XL PCR kit (Tth+Vent), (Roche Molecular Systems, Inc., Branchburg, N.J.)].
Resistance test vectors incorporating the “test” patient-derived segments were constructed as described in PCT International Application No. PCT/US97/01609, filed Jan. 29, 1997 using an amplified DNA product of 1.5 kB prepared by RT-PCR using viral RNA as a template and oligonucleotides PDSApa (1) and PDSAge (2) as primers, followed by digestion with ApaI and AgeI or the isoschizimer PINAI. To ensure that the plasmid DNA corresponding to the resultant resistance test vector comprises a representative sample of the HIV viral quasi-species present in the serum of a given patient, many (>100) independent E. coli transformants obtained in the construction of a given resistance test vector were pooled and used for the preparation of plasmid DNA.
(§1) Resistance tests were carried out with resistance test vectors using two host cell types. Resistance test vector viral particles were produced by a first host cell (the resistance test vector host cell) that was prepared by transfecting a packaging host cell with the resistance test vector and the packaging expression vector. The resistance test vector viral particles were then used to infect a second host cell (the target host cell) in which the expression of the indicator gene is measured.
The resistance test vectors containing a functional luciferase gene cassette were constructed and host cells were transfected with the resistance test vector DNA. The resistant test vectors contained patient-derived reverse transcriptase and protease sequences that were either susceptible or resistant to the antiretroviral agents, such as nucleoside reverse transcriptase inhibitors, non-nucleoside reverse transcriptase inhibitors and protease inhibitors. The resistance test vector viral particles produced by transfecting the resistance test vector DNA into host cells, either in the presence or absence of protease inhibitors, were used to infect target host cells grown either in the absence of NRTI or NNRTI or In the presence of increasing concentrations of the drug. The amount of luciferase activIty produced in infected target host cells in the presence of drug was compared to the amount of luciferase produced in infected target host cells in the absence of drug. Drug resistance was measured as the amount of drug required to inhibit by 50% the luciferase activity detected in the absence of drug (Inhibitory concentration 50%, IC50). […]

[2] = tested on: HIV-1 RT mutant resistance test vector M41L+A62V+T69SSA+M184V+T215Y; test: Phenotypic susceptibility assay, site directed RTV M41L+A62V+T69SSA+M184V+T215Y; type: cell-based; settings: for Average fold reduction in susceptibility: RTV with 41 + 62 + 69 + 184 + 215, 2 replicates; for effect on susceptibility (words): RTV with M41L+A62V+T69SSA+M184V+T215Y, addition of M184V to the 4 mutations
Protocol: as §1
The resistance test vectors containing a functional luciferase gene cassette were constructed and host cells were transfected with the resistance test vector DNA. The resistant test vectors contained patient-derived reverse transcriptase and protease sequences that were either susceptible or resistant to the antiretroviral agents, such as nucleoside reverse transcriptase inhibitors, non-nucleoside reverse transcriptase inhibitors and protease inhibitors. The resistance test vector viral particles produced by transfecting the resistance test vector DNA into host cells, either in the presence or absence of protease inhibitors, were used to infect target host cells grown either in the absence of NRTI or NNRTI or In the presence of increasing concentrations of the drug. The amount of luciferase activIty produced in infected target host cells in the presence of drug was compared to the amount of luciferase produced in infected target host cells in the absence of drug. Drug resistance was measured as the amount of drug required to inhibit by 50% the luciferase activity detected in the absence of drug (Inhibitory concentration 50%, IC50). The IC50 values were determined by plotting percent drug inhibition vs. log 10 drug concentration.
Host cells were seeded in 10-cm-diameter dishes and were transfected several days after plating with resistance test vector plasmid DNA and the envelope expression vector. Transfections were performed using a calcium-phosphate precipitation procedure. The cell culture media containing the DNA precipitate was replaced with fresh medium, from one to 24 hours, after transfection. Cell culture media containing resistance test vector viral particles was harvested one to four days after transfection and was passed through a […] filter before being stored at −80° C. HIV capsid protein (p24) levels in the harvested cell culture media were determined by an EIA method as described by the manufacturer (SIAC; Frederick, Md.). Before infection, target cells (293 and 293/T) were plated in cell culture media. Control infections were performed using cell culture media from mock transfections (no DNA) or transfections containing the resistance test vector plasmid DNA without the envelope expression plasmid. One to three or more days after infectIon the media was removed and cell lysis buffer (Promega) was added to each well. Cell lysates were assayed for luciferase activity (FIG. 3). The inhibitory effect of the drug was determined using the following equation:
% luciferase inhibition=1−(RLUluc[drug]÷RLUluc)×100
where RLUluc [drug] is the relative light unit of luciferase activity in infected cells in the presence of drug and RLUluc is the Relative Light Unit of luciferase activity in infected cells in the absence of drug. IC50 values were obtained from the sigmoidal curves that were generated from the data by plotting the percent inhibition of luciferase activity vs. the log 10 drug concentration. The drug inhibition curves are shown in (FIG. 3).
Genotypic changes that are observed to correlate with changes in phenotypic patterns of drug susceptibility are evaluated by construction of resistance test vectors containing the specific mutation on a defined, wild-type (drug susceptible) genetic background. Mutations may be incorporated alone and/or in combination with other known drug resistance mutations that are thought to modulate the susceptibility of HIV to a certain drug or class of drugs. […]

Row | SMILES | susceptibility compared to wild-type control RTV [1] | Average fold reduction in susceptibility [2] | effect on susceptibility (words) [2] | fold reduced susceptibility ([1]; four patient viruses with multi-NRTI resistance mutations (FIG. 4))
1 | Nc1nc(NC2CC2)c2ncn([C@H]3C=C[C@@H](CO)C3)c2n1 [ABC, abacavir] | decreases in susceptibility | 11.73 fold | no effect on susceptibility to ddC or abacavir | –
2 | Cc1cn([C@H]2C[C@H](N=[N+]=[N-])[C@@H](CO)O2)c(=O)[nH]c1=O [AZT, zidovudine] | decreases in susceptibility | 43.86 fold | increase in the susceptibility to AZT; also recorded: suppressed the reduced AZT susceptibility; also recorded: more susceptible | –
3 | Cc1cn([C@H]2C=C[C@@H](CO)O2)c(=O)[nH]c1=O [d4T, stavudine] | decrease in susceptibility to d4T; also recorded: decreases in susceptibility | 3.98 fold | no effect on the susceptibility to d4T; also recorded: did reduce d4T susceptibility more than the T69SSA mutation alone; also recorded: more susceptible | 4-12 fold
4 | Nc1ccn([C@H]2CC[C@@H](CO)O2)c(=O)n1 [ddC, zalcitabine] | decreases in susceptibility | 2.90 fold | no effect on susceptibility to ddC or abacavir | –
5 | O=c1[nH]cnc2c1ncn2[C@H]1CC[C@@H](CO)O1 [ddI, didanosine] | decreases in susceptibility | 2.55 fold | more susceptible | –
